Experiments:
[1] = system: A549 (human lung carcinoma cell line); assay: Glo assay of A549 cells (Table 3; ProteasomeGlo plating scheme); format: cell-based; details: Homo sapiens; A549 cells; read-out: PGLo A549
Summary of the method: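 Luminescent read-out of cellular chymotrypsin-like proteasome activity: cells exposed to compound 105 min at 37° C., 5% CO2, then given Suc-LLVY-Glo reagent, shaken 2-5 min and kept dark 10-15 min before reading. Values are IC50 [nM].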

[2] = system: RPMI 8226 (B lymphocyte cell line, multiple myeloma); assay: 48 hr CTG viability assay, RPMI 8226; format: cell-based; details: Homo sapiens, RPMI-8226; 48 hr CTG; read-out: RPMI-8226 IC50
Protocol: (§1) A viability assay was conducted for 48 hours to evaluate the inhibition of cancer cell growth by proteasome inhibitors. Briefly, the candidate cell line was plated with a 96-well plate following density of cells, respectively. 6×10^3 Cells/well for A2780 (human ovarian cancer cell line) and MDA-MB-468 (breast carcinoma), 8×10^3 Cells/well for Hs746T (human gastric carcinoma cell line), 1.1×10^4 Cells/well for MM1 S and RPMI 8226 (multiple myeloma). After 24 hours, the cells were treated with various concentrations of the compound (ranging from 0.0015 uM to 10 uM). […] After 48 hours of incubation at 37° C., 5% CO2 incubator, cells were analyzed for viability using the CellTiter-Glo Luminescent Cell Viability assay (Promega, Cat #G7570). All viability assays were performed in duplicate and Luminescence was read using an Envision (Perkin Elmer, USA). Data were analyzed using XLfit software. […] (human gastric carcinoma cell line), MM1 S (B lymphoblast cell line), and RPMI 8226 (B lymphocyte cell line, multiple myeloma). Inhibition is indicated as IC50 [nM] (“-”=not measured).

[3] = system: Hs 746T (human gastric carcinoma cell line); assay: 48 hr CTG viability assay, Hs 746T; format: cell-based; details: Hs746T, 48 hr CTG, read-out: Hs 746T IC50
Protocol: as §1

[4] = target: T1, β5 subunit of the human constitutive proteasome (CPS) (Homo sapiens, UniProt P28074); assay: β5 inhibition assay, human constitutive proteasome (Suc-LLVY-AMC); format: biochemical; details: IC50 class, Suc-LLVY-AMC substrate
T1 construct: purchased Boston Biochem E-360
Protocol: The enzymatic activity of the β5 subunit of the human constitutive proteasome (CPS) is analyzed. In another assay, which differs from the assay of the human constitutive proteasome only in using the human immunoproteasome (IPS) the enzymatic activity of the β5 subunit of the human immunoproteasome (IPS) is analyzed. […] Inhibition is indicated as IC50 [nM] (“-”=not measured).

[5] = target: T2, β5 subunit of the human immunoproteasome (IPS) (Homo sapiens, UniProt P28062); assay: β5 inhibition assay, human immunoproteasome (Suc-LLVY-AMC); format: biochemical; details: IC50 class, Suc-LLVY-AMC substrate
T2 construct: purchased Boston Biochem E-370
Summary of the method: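 Human immunoproteasome (1 nM final) was preincubated 10 min at RT with compound in 100 mM HEPES pH 7.5, 50 mM NaCl, 0.02% SDS, 1 mM DTT. Suc-LLVY-AMC (22.6 μM final) was then added for 4 h at RT in the dark. After stopping with 1 μM bortezomib, AMC fluorescence was read (ex 355/em 460 nm).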

[6] = system: MM1 S (B lymphoblast cell line); assay: 48 hr CTG viability assay, MM1S; format: cell-based; details: Homo sapiens, 48 hr CTG, read-out: MM1S IC50
Protocol: as §1

Row | IC50 [1] [nM] | IC50 [2] [nM] | IC50 [3] [nM] | IC50 [4] [nM] | IC50 [5] [nM] | IC50 [6] [nM] | Compound
1 | < 100 | < 100 | < 100 | < 100 | < 100 | < 100 | Cc1ccc2cc1CNC(=O)[C@H](CCc1ccccc1)NC(=O)[C@@H](NC(=O)CCNC(=O)C1CC3CCC1C3)CC(=O)N1CCCC(CCO2)C1 (stereo partly drawn) [Compound 617, N-(3-(((9S,12S)-5^4-methyl-8,11,14-trioxo-9-phenethyl-4-oxa-7,10-diaza-1(3,1)-piperidina-5(1,3)-benzenacyclotetradecaphane-12-yl)amino)-3-oxopropyl)bicyclo[2.2.1]heptane-2-carboxamide]
2 | < 100 | 100 to 500 | 100 to 500 | < 100 | < 100 | 100 to 500 | Cc1ccc2cc1CNC(=O)[C@H](CCc1ccccc1)NC(=O)[C@@H](NC1CCC1)CC(=O)N1CCCC(CCO2)C1 (stereo partly drawn) [Compound 717, (9S,12S)-12-(cyclobutylamino)-5^4-methyl-9-phenethyl-4-oxa-7,10-diaza-1(3,1)-piperidina-5(1,3)-benzenacyclotetradecaphane-8,11,14-trione]
3 | < 100 | < 100 | < 100 | < 100 | < 100 | < 100 | CC(C)(CO)C(=O)N[C@H]1CC(=O)N2CCCC(CCOc3ccc(F)c(c3)CNC(=O)[C@H](CCc3ccccc3)NC1=O)C2 (stereo partly drawn) [Compound 684, N-((9S,12S)-5^4-fluoro-8,11,14-trioxo-9-phenethyl-4-oxa-7,10-diaza-1(3,1)-piperidina-5(1,3)-benzenacyclotetradecaphane-12-yl)-3-hydroxy-2,2-dimethylpropanamide]
4 | < 100 | < 100 | < 100 | < 100 | < 100 | < 100 | Cc1ccc2cc1CNC(=O)[C@H](CCc1ccccc1)NC(=O)[C@@H](NC(=O)C(C)(C)c1ccc3ncccc3c1)CC(=O)N1CCCC(CCO2)C1 (stereo partly drawn) [Compound 609, 2-methyl-N-((9S,12S)-5^4-methyl-8,11,14-trioxo-9-phenethyl-4-oxa-7,10-diaza-1(3,1)-piperidina-5(1,3)-benzenacyclotetradecaphane-12-yl)-2-(quinolin-6-yl)propanamide]
5 | < 100 | < 100 | < 100 | < 100 | < 100 | < 100 | Cc1ccc2cc1CNC(=O)[C@H](CCc1ccccc1)NC(=O)[C@@H](NC(=O)CCOCC1CCCC1)CC(=O)N1CCCC(CCO2)C1 (stereo partly drawn) [Compound 625, 3-(cyclopentylmethoxy)-N-((9S,12S)-5^4-methyl-8,11,14-trioxo-9-phenethyl-4-oxa-7,10-diaza-1(3,1)-piperidina-5(1,3)-benzenacyclotetradecaphane-12-yl)propanamide]
6 | < 100 | < 100 | < 100 | < 100 | < 100 | < 100 | COc1ccccc1CCCOCCC(=O)N[C@H]1CC(=O)N2CCCC(CCOc3ccc(C)c(c3)CNC(=O)[C@H](CCc3ccccc3)NC1=O)C2 (stereo partly drawn) [Compound 637, 3-(3-(2-methoxyphenyl)propoxy)-N-((9S,12S)-5^4-methyl-8,11,14-trioxo-9-phenethyl-4-oxa-7,10-diaza-1(3,1)-piperidina-5(1,3)-benzenacyclotetradecaphane-12-yl)propanamide]
7 | < 100 | < 100 | < 100 | < 100 | < 100 | < 100 | Cc1ccc2cc1CNC(=O)[C@H](CCc1ccccc1)NC(=O)[C@@H](NC(=O)CCN1CCC3(CCC3)C1)CC(=O)N1CCCC(CCO2)C1 (stereo partly drawn) [Compound 639, N-((9S,12S)-5^4-methyl-8,11,14-trioxo-9-phenethyl-4-oxa-7,10-diaza-1(3,1)-piperidina-5(1,3)-benzenacyclotetradecaphane-12-yl)-3-(6-azaspiro[3.4]octan-6-yl)propanamide]
8 | < 100 | < 100 | < 100 | < 100 | < 100 | < 100 | Cc1ccc2cc1CNC(=O)[C@H](CCc1ccccc1)NC(=O)[C@@H](NC(=O)CCN1CCC3(COC3)C1)CC(=O)N1CCCC(CCO2)C1 (stereo partly drawn) [Compound 648, N-((9S,12S)-5^4-methyl-8,11,14-trioxo-9-phenethyl-4-oxa-7,10-diaza-1(3,1)-piperidina-5(1,3)-benzenacyclotetradecaphane-12-yl)-3-(2-oxa-6-azaspiro[3.4]octan-6-yl)propanamide]
9 | < 100 | < 100 | < 100 | < 100 | < 100 | < 100 | Cc1ccc2cc1CNC(=O)[C@H](CCc1ccccc1)NC(=O)[C@@H](NC(=O)CCNC(=O)c1ccc(C3CCCCC3)cc1)CC(=O)N1CCCC(CCO2)C1 (stereo partly drawn) [Compound 656, 4-cyclohexyl-N-(3-(((9S,12S)-5^4-methyl-8,11,14-trioxo-9-phenethyl-4-oxa-7,10-diaza-1(3,1)-piperidina-5(1,3)-benzenacyclotetradecaphane-12-yl)amino)-3-oxopropyl)benzamide]
10 | < 100 | < 100 | < 100 | < 100 | < 100 | < 100 | COCCOCCC(=O)N[C@H]1CC(=O)N2CCCC(CCOc3ccc(C)c(c3)CNC(=O)[C@H](CCc3ccccc3)NC1=O)C2 (stereo partly drawn) [Compound 596, 3-(2-methoxyethoxy)-N-((9S,12S)-5^4-methyl-8,11,14-trioxo-9-phenethyl-4-oxa-7,10-diaza-1(3,1)-piperidina-5(1,3)-benzenacyclotetradecaphane-12-yl)propanamide]
11 | > 5000 | 1000 to 5000 | > 5000 | 1000 to 5000 | 1000 to 5000 | 1000 to 5000 | Cc1ccc2cc1CNC(=O)[C@H](CCc1ccccc1)NC(=O)[C@@H](NC(=O)C(C)(C)CO)CC(=O)NCCCO2 [Compound 736, 3-hydroxy-2,2-dimethyl-N-((9S,12S)-1^4_ methyl-7,10,13-trioxo-12-phenethyl-2-oxa-6,11,14-triaza-1(1,3)-benzenacyclopentadecaphane-9-yl)propanamide]
12 | < 100 | < 100 | < 100 | < 100 | < 100 | < 100 | Cc1ccc2cc1CNC(=O)[C@H](CCc1ccccc1)NC(=O)[C@@H](NC(=O)CCN1CCC3(CC1)COC3)CC(=O)N1CCCC(CCO2)C1 (stereo partly drawn) [Compound 641, N-((9S,12S)-5^4-methyl-8,11,14-trioxo-9-phenethyl-4-oxa-7,10-diaza-1(3,1)-piperidina-5(1,3)-benzenacyclotetradecaphane-12-yl)-3-(2-oxa-7-azaspiro[3.5]nonan-7-yl)propanamide]

Row | Compound | IC50 [1] [nM] | IC50 [2] [nM] | IC50 [3] [nM] | IC50 [4] [nM] | IC50 [5] [nM] | IC50 [6] [nM]
13 | Cc1ccc2cc1CNC(=O)[C@H](CCc1ccccc1)NC(=O)[C@@H](NC(=O)C1CC3CCC(C1)N3C)CC(=O)N1CCCC(CCO2)C1 (stereo partly drawn) [Compound 713, 8-methyl-N-((9S,12S)-5^4-methyl-8,11,14-trioxo-9-phenethyl-4-oxa-7,10-diaza-1(3,1)-piperidina-5(1,3)-benzenacyclotetradecaphane-12-yl)-8-azabicyclo[3.2.1]octane-3-carboxamide] | < 100 | < 100 | 100 to 500 | < 100 | < 100 | < 100
14 | Cc1ccc2cc1CNC(=O)[C@H](CCc1ccccc1)NC(=O)[C@@H](NC(=O)C1CC3CCC(C1)N3)CC(=O)N1CCCC(CCO2)C1 (stereo partly drawn) [Compound 723, N-((9S,12S)-5^4-methyl-8,11,14-trioxo-9-phenethyl-4-oxa-7,10-diaza-1(3,1)-piperidina-5(1,3)-benzenacyclotetradecaphane-12-yl)-8-azabicyclo[3.2]octane-3-carboxamide] | < 100 | 100 to 500 | 100 to 500 | < 100 | < 100 | 100 to 500

Reference: patent US20240415819A1, “MACROCYCLIC COMPOUNDS AS PROTEASOME SUBUNIT BETA TYPE-5 INHIBITORS” (Lead Discovery Center GmbH, priority 2021, published 2024)
